From article PMC2943919, “Green Tea Catechin, Epigallocatechin Gallate, Suppresses Signaling by the dsRNA Innate Immune Receptor RIG-I” (PLoS ONE, 2010) come the findings set out here.

Experiment [1] has as its target T1, RIG-I (Retinoic acid-inducible gene I) (Homo sapiens, UniProt O95786).
T1 sequence (O95786 1-925): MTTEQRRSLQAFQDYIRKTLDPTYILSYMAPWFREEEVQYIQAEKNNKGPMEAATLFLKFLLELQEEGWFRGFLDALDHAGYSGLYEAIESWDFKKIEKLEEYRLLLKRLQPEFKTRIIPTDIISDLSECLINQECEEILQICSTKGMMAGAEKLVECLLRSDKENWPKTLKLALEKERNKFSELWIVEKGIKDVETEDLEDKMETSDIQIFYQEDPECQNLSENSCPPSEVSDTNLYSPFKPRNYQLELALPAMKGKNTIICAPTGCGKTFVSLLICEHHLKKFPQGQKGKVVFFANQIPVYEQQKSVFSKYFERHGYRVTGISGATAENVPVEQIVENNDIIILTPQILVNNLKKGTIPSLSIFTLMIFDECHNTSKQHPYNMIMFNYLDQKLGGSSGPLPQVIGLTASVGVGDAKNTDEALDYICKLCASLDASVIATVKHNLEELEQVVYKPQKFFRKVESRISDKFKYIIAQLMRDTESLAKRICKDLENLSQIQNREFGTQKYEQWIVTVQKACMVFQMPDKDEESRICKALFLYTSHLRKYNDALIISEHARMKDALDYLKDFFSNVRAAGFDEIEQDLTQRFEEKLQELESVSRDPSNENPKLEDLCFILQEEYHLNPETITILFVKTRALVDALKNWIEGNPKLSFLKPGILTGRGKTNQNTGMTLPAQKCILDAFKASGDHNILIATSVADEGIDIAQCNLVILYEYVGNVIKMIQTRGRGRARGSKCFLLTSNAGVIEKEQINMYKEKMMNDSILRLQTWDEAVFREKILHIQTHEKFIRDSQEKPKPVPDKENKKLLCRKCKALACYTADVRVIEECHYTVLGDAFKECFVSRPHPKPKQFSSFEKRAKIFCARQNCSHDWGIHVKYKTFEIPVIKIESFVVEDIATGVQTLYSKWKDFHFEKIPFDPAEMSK
Put plainly: RNA-dependent ATPase assay (ADP-Glo) with recombinant RIG-I; supported by native gel mobility shift. Details: gene RIGI; recombinant full length RIG-I. It counts as biochemical.

Experiment [2] concerns the target T1, RIG-I (Retinoic acid-inducible gene I). Nature of the experiment: RNA-dependent ATPase assay (ADP-Glo) at […]. It counts as biochemical. Details: gene RIGI; recombinant RIG-I.

Regarding `O=C(O[C@@H]1Cc2c(O)cc(O)cc2O[C@@H]1c1cc(O)c(O)c(O)c1)c1cc(O)c(O)c(O)c1` [EGCG, Epigallocatechin gallate], the IC50 in experiment [1] was less than 0.5 µM.

`O=C(O[C@@H]1Cc2c(O)cc(O)cc2O[C@@H]1c1ccc(O)c(O)c1)c1cc(O)c(O)c(O)c1` [ECG, epicatechin gallate]: the “RNA-dependent ATPase assay (ADP-Glo) at 0.5 and 1 μM” value in experiment [2] is “GCG, ECG, CG and TFDG inhibited the shR9-induced RIG-I ATPase activity to similar degree as EGCG”.

Turning to `O=C(O[C@@H]1Cc2c(O)cc(O)cc2O[C@H]1c1cc(O)c(O)c(O)c1)c1cc(O)c(O)c(O)c1` [GCG, gallocatechin gallate], the “RNA-dependent ATPase assay (ADP-Glo) at 0.5 and 1 μM” value in experiment [2] was “GCG, ECG, CG and TFDG inhibited the shR9-induced RIG-I ATPase activity to similar degree as EGCG”.
